Reference: US20230312473A1, “PROCESS FOR THE PREPARATION OF BIHETEROARYL COMPOUNDS AND CRYSTAL FORMS THEREOF” (Genentech, Inc., priority 2020, published 2023)

How the values were obtained:
[1] = Mechanical stress evaluation: crystallinity by XRPD; assay type: physicochemical
Protocol: Compound 1, produced generally according to the method of Example 5, was evaluated for changes induced mechanical stress conditions, where crystallinity was evaluated by XRPD and where thermoanalytic characteristics were measured by differential scanning calorimetry (“DSC”), thermogravimetric analysis (“TGA”) and dynamic vapor sorption (“DVS”).
In a first evaluation, compound 1 was micronized by jet milling and evaluated by XRPD and DSC.
About 500 mg of compound 1 was dry grinded for about 5 minutes at ambient conditions with a mortar and pestle in order to simulate shear stresses encountered during a dry granulation. […] Furthermore, thermoanalytic data as measured by DSC, TGA, and DVS was only marginally different from compound 1 starting material (see Table 12 below).
The effect of pressure on compound 1 was performed to investigate whether phase transformation could occur during tableting. The conditions were 1.8 T/5 mm compact, 900 MPa, about 30 mg of compound 1, and a dwell time of about 6 seconds). The tablets were analyzed without further treatment and after gentle crushing of the tablets with a pestle. […] FIG. 2 pattern (b) is the XRPD pattern for crushed tablets. FIG. 2 pattern (c) is the XRPD pattern for tablets that were not crushed.
To simulate wet milling, wet manual grinding experiments were done. About 500 mg of compound 1 and about 0.5 mL water were kneaded for about 5 minutes with a mortar and pestle. About 100 mg of the wet material was analyzed by XRPD. The remainder of the material was dried overnight in an oven at 50° C. and ambient pressure. The dried material was analyzed by […], DSC, TGA, and DVS.

[2] = Crystallization study: crystalline form by XRPD; assay type: physicochemical
Protocol: In Example 14, X-ray powder diffraction (“XRPD”), a sample of compound 1 was prepared in an open quartz glass capillary with a diameter of 0.9 mm (and was not further processed, such as by grinding). A Stoe high-low temperature attachment (working range −50 to 300) with a NiCr/Ni thermocouple for temperature measurement controlled the respective temperature conditions. The measurements were carried out with a rotating capillary and the following parameters. STOE STADI diffractometer; MYTHEN 1K detector; CuKα, 1.5406 Å radiation; Ge monochromator; 40 kV, 40 mA; moving scan; 1800 seconds per step; 2θ=3-42 degrees; 5° C./min ramp rate; and 5° C. temperature step.
Compound 1 was prepared from crude compound 1 according to the following procedure. Crude compound 1 (46 kg) was dissolved in 1080 kg of isopropyl acetate at 88.6° C. After cooling to 71° C., the solution was passed through a pre-washed and pre-heated charcoal filter. The charcoal filter was rinsed with 400 kg of hot isopropyl acetate. Under reduced pressure, the volume of the combined filtrates was concentrated to a total of 760 to 780 L. The resulting suspension was heated to 88° C. Isopropyl acetate was then added in portions (85 kg in total) to achieve complete dissolution at 88° C. The solution was cooled to 69° C. leading to a suspension which was then cooled to 0° C. within 190 minutes, and stirred at this temperature for 900 minutes. The product was isolated by filtration and rinsed with portions of cold isopropyl acetate (400 kg in total). After drying at […]/10 mbar for about 40 hours, 38.5 kg (approx. 84% of theoretical yield) of crystallized compound 1 was obtained.
Crystalline compound 1 was evaluated. Crystallization study procedures were done based on the solubility of compound 1 in the solvent under evaluation as follows.
The results are presented below in Table 10 where: * refers to compound 1 prepared as described above; and ** refers to compound 1 prepared as described above and further incubated at 100% relative humidity at 22° C. for 17 days.

Compound: Nc1ncc(-c2cc(N3C[C@@H]4C[C@H]3CO4)nc(N3CCC(F)(F)C3)n2)cc1OC(F)F [Compound 1, 5-(6-((1S,4S)-2-oxa-5-azabicyclo[2.2.1]heptan-5-yl)-2-(3,3-difluoropyrrolidin-1-yl)pyrimidin-4-yl)-3-(difluoromethoxy)pyridin-2-amine]
- crystallinity by XRPD ([1]; after manual wet milling and after hot drying of wet milled material): No reduction in the crystallinity
- crystallinity by XRPD ([1]; dry grinded about 5 minutes with mortar and pestle (simulated dry granulation)): No reduction of crystallinity
- influence on crystallinity ([1]; micronized by jet milling): no significant influence on crystallinity
- crystallinity by XRPD ([1]; tableting, 900 MPa, dwell about 6 seconds, with and without crushing of the tablets): some reduction of crystallinity
- Crystalline Form ([2]; * compound 1 as prepared (crystallized from isopropyl acetate)): Form A
- Crystalline Form ([2]; ** as prepared and further incubated at 100% relative humidity at 22° C. for 17 days): Form A
- Crystalline Form ([2]; crystallization study solvent: 2-methyl THF): Form A
- Crystalline Form ([2]; crystallization study solvent: 5% water in ethanol): Form A
- Crystalline Form ([2]; crystallization study solvent: 5% water in isopropanol): Form A
- Crystalline Form ([2]; crystallization study solvent: 5% water in methanol): Form A
- Crystalline Form ([2]; crystallization study solvent: 5% water in propanol): Form A
- Crystalline Form ([2]; crystallization study solvent: 15% water in THF): Form A
- Crystalline Form ([2]; crystallization study solvent: 15% water in acetone): Form A
- Crystalline Form ([2]; crystallization study solvent: 15% water in ethanol): Form A
- Crystalline Form ([2]; crystallization study solvent: 15% water in isopropanol): Form A
- Crystalline Form ([2]; crystallization study solvent: 15% water in methanol): Form A
- Crystalline Form ([2]; crystallization study solvent: 15% water in propanol): Form A
- Crystalline Form ([2]; crystallization study solvent: 20% water in acetonitrile): Form A
- Crystalline Form ([2]; crystallization study solvent: 50% water in acetonitrile): Form A
- Crystalline Form ([2]; crystallization study solvent: 50% water in ethanol): Form A
- Crystalline Form ([2]; crystallization study solvent: 50% water in isopropanol): Form A
- Crystalline Form ([2]; crystallization study solvent: 50% water in methanol): Form A
- Crystalline Form ([2]; crystallization study solvent: 50% water in propanol): Form A
- Crystalline Form ([2]; crystallization study solvent: 80% water in acetonitrile): Form A
- Crystalline Form ([2]; crystallization study solvent: Acetic acid): Form A
- Crystalline Form ([2]; crystallization study solvent: Acetone): Form A
- Crystalline Form ([2]; crystallization study solvent: Acetonitrile): Form A
- Crystalline Form ([2]; crystallization study solvent: Butanol): Form A
- Crystalline Form ([2]; crystallization study solvent: Chloroform): Form A
- Crystalline Form ([2]; crystallization study solvent: DMA): Form A
- Crystalline Form ([2]; crystallization study solvent: DMF): Form A
- Crystalline Form ([2]; crystallization study solvent: DMSO): Form A
- Crystalline Form ([2]; crystallization study solvent: Dichloromethane): Form A
- Crystalline Form ([2]; crystallization study solvent: Diisopropylamine): Form A
- Crystalline Form ([2]; crystallization study solvent: Dimethyl carbonate): Form A
- Crystalline Form ([2]; crystallization study solvent: Dioxane): Form A
- Crystalline Form ([2]; crystallization study solvent: Ethanol): Form A
- Crystalline Form ([2]; crystallization study solvent: Ethyl acetate): Form A
- Crystalline Form ([2]; crystallization study solvent: Isopropanol): Form A
- Crystalline Form ([2]; crystallization study solvent: Isopropyl acetate): Form A
- Crystalline Form ([2]; crystallization study solvent: MEK): Form A
- Crystalline Form ([2]; crystallization study solvent: MIBK): Form A
- Crystalline Form ([2]; crystallization study solvent: MTBE): Form A
- Crystalline Form ([2]; crystallization study solvent: Methanol): Form A
- Crystalline Form ([2]; crystallization study solvent: NMP): Form A
- Crystalline Form ([2]; crystallization study solvent: Nitromethane): Form A
- Crystalline Form ([2]; crystallization study solvent: Propanol): Form A
- Crystalline Form ([2]; crystallization study solvent: THF): Form A
- Crystalline Form ([2]; crystallization study solvent: Toluene): Form A
- Crystalline Form ([2]; crystallization study solvent: Water): Form A
- Crystalline Form ([2]; crystallization study solvent: i-Butanol): Form A
- Crystalline Form ([2]; crystallization study solvent: n-Heptane): Form A
- Crystalline Form ([2]; crystallization study solvent: s-butanol): Form A
